From patent US8067204B2, “Long-chain chondroitin sugar chain and method for producing the same and method for promoting synthesis of chondroitin” (Seikagaku Corporation, priority 2005, dated 2011)

Biological target: T1, bacterial cell enzyme (E. coli expressing CH polymerase K4CP) (Escherichia coli, UniProt Q8L0V4)
T1 construct: His tag (from vector pTrcHis); expressed in transfected cells; host or cells: E. coli transformed with the pTrcHis-K4CP vector and induced with IPTG; The whole-cell pellet was used as the enzyme; TOP10 is named only as the preferred host
Experiment: Incorporation of [3H]GalNAc into the polymer (CH) fraction by the bacterial cell enzyme
Type: biochemical, Escherichia coli K4 strain
Conditions: for influence of surfactant on incorporation of [3H]GalNAc: FIG. 4
Description: According to the method described in Japanese Patent Application No. 2003-199583, the gene of the CH polymerase (K4CP) enzyme derived from E. coli and an expression vector were prepared. the plasmid pTrcHis (manufactured by Invitrogen Corporation) was used as the expression vector. The expression vector obtained by the method was introduced to E. coli. The E. coli was cultured at 37° C. in an ampicillin-containing LB medium until absorbance of the culture medium reached about 0.6 at a wavelength of 600 nm. β-isopropylthiogalactoside (IPTG), which is an expression induction molecule, was added to the culture medium in such an amount that attains a final concentration of 1 mM, and culture was further performed at 37° C. for 3 hours to induce an enzyme expression. 1 ml of the culture medium was taken and transferred to a centrifugation tube to undergo centrifugation at 10,000 rpm for 1 minute. After the supernatant was discarded, a cell precipitate was used a bacterial cell enzyme. Further, the cell precipitate can maintain the enzymatic activity at least for 1 year by storing at −80° C.
To the bacterial cell enzyme obtained in Example 1, 50 mM of Tris-HCl (pH of 7.2) buffer solution containing 20 mM of MnCl2, 150 mM of NaCl, 0.1 nmol of CH6, 3 nmol of UDP-GalNAc, 0.2 μCi of UDP-[^3H] GalNAc, and 3 nmol of UDP-GlcUA, and a surfactant (Nymeen S-215; manufactured by NOF CORPORATION) at a final concentration of 0, 0.1, 0.2, 0.4, 1.0, or 2.0% was added and suspended. Each of the suspensions was shaken at 30° C. for 15 hours. After the reaction, each of the suspensions was heat-treated for 10 minutes in boiling water, and then centrifuged at 15,000 rpm for 5 minutes to remove a precipitate. Each of the supernatants was subjected to gel filtration using Superdex peptide HR 10/30 column (manufactured by Amersham Biosciences Co., Ltd.). The sugar chains in each of the eluted solutions were detected based on the absorbance at 225 nm.
An eluted fraction which corresponds to the absorption peak residing in a polymer region was obtained, and an incorporation of [^3H] GalNAc was detected. The incorporation was shown by the ratio (%) of the incorporated radioactivity with respect to the total radioactivity as 100%.
(§1) The same test as Example 3 was performed using various kinds of surfactants each having a final concentration of 0.4% to examine how various kinds of surfactants influence on the incorporation of [^3H] GalNAc. As an enzyme, the bacterial cell enzyme produced in Example 1 was used. Further, the surfactants used are described below.
as §1, with “organic solvents” for “surfactants”, “1%” for “0.4%”, “the influence of the” for “how”, “organic solvents” for “surfactants influence”, “prepared” for “produced”
The incorporation was shown by the ratio (%) of the incorporated radioactivity with respect to the total radioactivity of [^3H] GalNAc used as 100%. It should be noted that the term “without organic solvent” in FIG. 5 means a case where the bacterial cell enzyme was reacted in the absence of organic solvents.
Besides, in order to examine the concentration dependency in the case of using chloroform as an organic solvent, the same test as Example 3 was performed by setting chloroform concentration in the enzyme reaction solution to 0, 0.5, 1.0, 2.0, 5.0, or 10.0%, thereby the amount of incorporation of [^3H] GalNAc in the polymer fraction was examined.

[1] = surfactant final concentration 0.4%

T1 sequence (Q8L0V4 whole entry): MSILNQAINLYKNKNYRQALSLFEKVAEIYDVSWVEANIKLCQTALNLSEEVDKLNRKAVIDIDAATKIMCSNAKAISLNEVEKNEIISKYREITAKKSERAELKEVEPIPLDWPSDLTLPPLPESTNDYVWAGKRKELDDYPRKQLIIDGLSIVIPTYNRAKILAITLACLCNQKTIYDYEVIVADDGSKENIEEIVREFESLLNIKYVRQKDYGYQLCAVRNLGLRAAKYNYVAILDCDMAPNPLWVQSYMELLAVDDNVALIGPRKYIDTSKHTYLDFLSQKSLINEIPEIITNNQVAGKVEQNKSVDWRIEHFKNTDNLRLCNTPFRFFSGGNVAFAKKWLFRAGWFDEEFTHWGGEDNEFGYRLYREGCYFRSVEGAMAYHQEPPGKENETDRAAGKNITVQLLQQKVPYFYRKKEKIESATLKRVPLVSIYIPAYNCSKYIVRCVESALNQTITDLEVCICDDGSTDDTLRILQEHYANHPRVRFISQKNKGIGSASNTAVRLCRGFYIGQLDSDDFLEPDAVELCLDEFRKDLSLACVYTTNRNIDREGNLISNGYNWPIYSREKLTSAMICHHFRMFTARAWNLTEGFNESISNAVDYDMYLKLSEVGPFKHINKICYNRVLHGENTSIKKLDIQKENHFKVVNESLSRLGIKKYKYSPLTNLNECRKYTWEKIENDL

Which results are given for “polyoxyethylene octadecyl amine [Nymeen S-215]”?
incorporation of [3H]GalNAc into the polymer fraction (ratio of incorporated to total radioactivity) (surfactant concentration 0.4% or more at the time of the enzyme reaction, 30° C., 15 hours, FIG. 1): about 37%; incorporation of used [3H]GalNAc into the polymer fraction (surfactant final concentration 0.4%, Example 4, reconfirmation): about 37%

Which “incorporation of [3H]GalNAc in the polymer fraction, dependence on chloroform concentration” value (chloroform concentration more than 0% to less than 5% (tested 0, 0.5, 1.0, 2.0, 5.0, 10.0%), FIG. 6) does the source give for `ClC(Cl)Cl` [chloroform, Chloroform] here?
The value was “promoted”.

And the “influence of organic solvent on incorporation of [3H]GalNAc” value (organic solvent final concentration 1%, FIG. 5)?
Its value is “promoted the incorporation”.

With `CCCCCCCCCS[C@@H]1O[C@H](CO)[C@@H](O[C@H]2O[C@H](CO)[C@@H](O)[C@H](O)[C@H]2O)[C@H](O)[C@H]1O` [n-nonyl-β-D-thiomaltopyranoside] as the molecule, how does the “influence of surfactant on incorporation of [3H]GalNAc” value (shortened to “influence of surfactant”) [1] read?
The value was “particularly efficient incorporation”.

Which “influence of surfactant” value [1] does the source give for Sucrose monocaprate here?
Its value is “particularly efficient incorporation”.

For Sucrose monolaurate, which “influence of surfactant” value [1] is on record?
The value was “particularly efficient incorporation”.
